Measurements as given in US20260130933A1, “PHARMACEUTICAL COMPOSITION FOR PREVENTION OR TREATMENT OF NEPHROPATHY AND/OR DIABETES MELLITUS, COMPRISING ENAVOGLIFLOZIN” (DAEWOONG PHARMACEUTICAL CO., LTD., priority 2022, published 2026).

Experiment: Example 3: phase 3 trial, enavogliflozin 0.3 mg vs dapagliflozin 10 mg once a day for 24 weeks added to metformin and gemigliptin in patients with type 2 diabetes (same endpoints, rescue drug)
Type: in vivo, human
Conditions: week 24
Protocol: 1) when Metformin (≥1,000 mg/Day) was Administered at a Constant Dose for at Least 8 Weeks Prior to Pre-Visit (Pre-Screening) • Metformin (≥1,000 mg/day) and gemigliptin (50 mg/day) were co-administered during the 8-week stabilization period. […] 4) when Metformin (≥1,000 mg/Day) and Gemigliptin (50 mg/Day) were Co-Administered at Constant Doses for at Least 8 Weeks Prior to Pre-Visit (Prescreening) • Without a separate stabilization period, Pre-visit (pre-screening) was Visit 1 (screening).
Subjects who met the inclusion/exclusion criteria continued to receive metformin and gemigliptin while receiving a placebo of the clinical trial drug in a single-blind (subject-blinded) state for a 2-week run-in period.
Here, the randomized subjects were stratified according to the administration therapy (co-administration with two or less agents (one or two agents) or three or more agents) of a conventional hypoglycemic agent (before washout of another hypoglycemic agent) within 24 weeks prior to obtaining written informed consent and by an HbA1c value (<8% or ≥8%) at Visit 1 (screening) measured in the central laboratory.
The randomized subjects were administered two tablets of the clinical trial drug corresponding to each administration group once a day, and then visited the institution at weeks 6, 12, 18, and 24 during the 24-week administration period to conduct efficacy and safety assessments. In addition, during the clinical trial period, they were instructed to exercise regularly and control their diet without changing their daily life patterns.
• 1) Change in HbA1c at week 24 after administration of clinical trial drug compared to Visit 2 (randomization)
• 1) Change in HbA1c at each time point of weeks 6, 12, and 18 after administration of clinical trial drug compared to Visit 2 (randomization) • 2) Change in FPG at each time point of weeks 6, 12, 18, and 24 after administration of clinical trial drug compared to Visit 2 (randomization) • 3) Proportion of subjects achieving HbA1c<7% at each time point of weeks 6, 12, 18, and 24 after administration of clinical trial drug • 4) Proportion of subjects achieving HbA1c<6.5% at each time point of weeks 6, 12, 18, and 24 after administration of clinical trial drug • 5) Proportion of subjects achieving therapeutic response (HbA1c change (HbA1c at Visit 2—HbA1c at each evaluation time point)>0.5% or HbA1c<7% at each evaluation time point compared to Visit 2 (randomization)) at each time point of weeks 6, 12, 18, and 24 after administration of clinical trial drug • 6) Proportion of subjects achieving therapeutic response (HbA1c change (HbA1c at Visit 2—HbA1c at each evaluation time point)>0.7% or HbA1c<7% at each evaluation time point compared to Visit 2 (randomization)) at each time point of weeks 6, 12, 18, and 24 after administration of clinical trial drug • 7) Proportion of subjects achieving therapeutic response (HbA1c change (HbA1c at Visit 2—HbA1c at each evaluation time point)>1% or HbA1c<7% at each evaluation time point compared to Visit 2 (randomization)) at each time point of weeks 6, 12, 18, and 24 after administration of clinical trial drug

[1] = modified per-protocol set 2, enavogliflozin 0.3 mg, dapagliflozin 10 mg
[2] = per-protocol set, enavogliflozin 0.3 mg vs dapagliflozin 10 mg
[3] = per-protocol set, enavogliflozin 0.3 mg, dapagliflozin 10 mg

SMILES: OC[C@H]1O[C@@H](c2cc(Cc3ccc(C4CC4)cc3)c(Cl)c3c2CCO3)[C@H](O)[C@@H](O)[C@@H]1O [Enavogliflozin, (2S,3R,4R,5S,6R)-2-(7-chloro-6 (4-cyclopropylbenzyl)-2,3-dihydrobenzofuran-4-yl)-6-(hydroxymethyl)tetrahydro-2H-pyran-3,4,5-triol]
- Change from baseline in diastolic blood pressure, Median (modified per-protocol set 2): −3.00 mmHg
- Diastolic blood pressure, Mean (modified per-protocol set 2): 73.40 mmHg
- Diastolic blood pressure, Median (modified per-protocol set 2): 73.50 mmHg
- Change from baseline in systolic blood pressure, ANCOVA LS mean difference (modified per-protocol set 2, enavogliflozin 0.3 mg vs dapagliflozin 10 mg): −0.22 mmHg
- Change from baseline in systolic blood pressure, ANCOVA LS mean [1]: −4.49 mmHg
- Change from baseline in systolic blood pressure, Mean [1]: −5.20 mmHg
- Change from baseline in systolic blood pressure, Median [1]: −5.00 mmHg
- Systolic blood pressure, Mean [1]: 122.29 mmHg
- Systolic blood pressure, Median [1]: 121.00 mmHg
- Adiponectin, Mean (per-protocol set): 7.62 µg/mL
- Adiponectin, Median (per-protocol set): 6.49 µg/mL
- Change from baseline in HOMA-IR, ANCOVA LS mean (per-protocol set): −1.09
- Change from baseline in HOMA-IR, LS mean difference (enavogliflozin − dapagliflozin) (per-protocol set): −0.16
- Change from baseline in HOMA-IR, Mean (per-protocol set): −1.07
- Change from baseline in HOMA-IR, Median (per-protocol set): −0.80
- Change from baseline in HOMA-β, ANCOVA LS mean (per-protocol set): 1.09
- Change from baseline in HOMA-β, LS mean difference (enavogliflozin − dapagliflozin) (per-protocol set): −4.69
- Change from baseline in HOMA-β, Mean (per-protocol set): 2.57
- Change from baseline in HOMA-β, Median (per-protocol set): 5.70
- Change from baseline in UACR, ANCOVA LS mean (per-protocol set): -15.34 g/kg
- Change from baseline in UACR, LS mean difference (enavogliflozin − dapagliflozin) (per-protocol set): 0.79 g/kg
- Change from baseline in UACR, Mean (per-protocol set): -19.52 g/kg
- Change from baseline in UACR, Median (per-protocol set): -1.55 g/kg
- Change from baseline in UGCR, ANCOVA LS mean (per-protocol set): 60.22 mg/mg
- Change from baseline in UGCR, LS mean difference (enavogliflozin − dapagliflozin) (per-protocol set): 16.71 mg/mg
- Change from baseline in UGCR, Mean (per-protocol set): 59.39 mg/mg
- Change from baseline in UGCR, Median (per-protocol set): 55.98 mg/mg
- Change from baseline in adiponectin, ANCOVA LS mean (per-protocol set): 1.42 µg/mL
- Change from baseline in adiponectin, LS mean difference (enavogliflozin − dapagliflozin) (per-protocol set): 0.49 µg/mL
- Change from baseline in adiponectin, Mean (per-protocol set): 1.39 µg/mL
- Change from baseline in adiponectin, Median (per-protocol set): 1.11 µg/mL
- Change from baseline in leptin, ANCOVA LS mean (per-protocol set): -1.46 ng/mL
- Change from baseline in leptin, LS mean difference (enavogliflozin − dapagliflozin) (per-protocol set): -0.89 ng/mL
- Change from baseline in leptin, Mean (per-protocol set): -1.52 ng/mL
- Change from baseline in leptin, Median (per-protocol set): -0.91 ng/mL
- HOMA-IR (insulin resistance), Mean (per-protocol set): 1.84
- HOMA-IR (insulin resistance), Median (per-protocol set): 1.56
- HOMA-β (beta-cell function), Mean (per-protocol set): 45.48
- HOMA-β (beta-cell function), Median (per-protocol set): 41.40
- Leptin, Mean (per-protocol set): 8.95 ng/mL
- Leptin, Median (per-protocol set): 6.03 ng/mL
- UACR, Mean (per-protocol set): 27.90 g/kg
- UACR, Median (per-protocol set): 11.10 g/kg
- UGCR, Mean (per-protocol set): 60.12 mg/mg
- UGCR, Median (per-protocol set): 57.96 mg/mg
- Achieving HbA1c target of <6.5%, odds ratio (logistic regression model) [2]: 1.27
- Achieving HbA1c target of <7%, odds ratio (logistic regression model) [2]: 1.17
- Change from baseline in FPG, ANCOVA LS mean difference [2]: -3.49 mg/dL
- Change from baseline in body weight, ANCOVA LS mean difference [2]: -0.15 kg
- Change from baseline in fasting C-peptide, ANCOVA LS mean difference [2]: -0.01 ng/mL
- Therapeutic glycemic response 1, odds ratio (logistic regression model) [2]: 1.15
- Therapeutic glycemic response 2, odds ratio (logistic regression model) [2]: 0.98
- Therapeutic glycemic response 3, odds ratio (logistic regression model) [2]: 1.22
- Body weight, Mean [3]: 66.19 kg
- Change from baseline in FPG, ANCOVA LS mean [3]: -27.21 mg/dL
- Change from baseline in FPG, Mean [3]: -26.31 mg/dL
- Change from baseline in FPG, Median [3]: -20.00 mg/dL
- Change from baseline in body weight, ANCOVA LS mean [3]: -3.15 kg
- Change from baseline in body weight, Mean [3]: -3.09 kg
- Change from baseline in body weight, Median [3]: -3.00 kg
- Change from baseline in fasting C-peptide, ANCOVA LS mean [3]: -0.09 ng/mL
- Change from baseline in fasting C-peptide, Mean [3]: -0.09 ng/mL
- Change from baseline in fasting C-peptide, Median [3]: -0.07 ng/mL
- FPG, Mean [3]: 113.03 mg/dL
- FPG, Median [3]: 110.00 mg/dL
- Fasting C-peptide, Mean [3]: 0.64 ng/mL
- Fasting C-peptide, Median [3]: 0.63 ng/mL
- Subjects achieving HbA1c target of <6.5%, (%) [3]: 21.01%
- Subjects achieving HbA1c target of <7%, % [3]: 66.39%
- body weight, Median [3]: 65.10 kg
- Subjects achieving therapeutic glycemic response 1, % (per-protocol set, response 1 = HbA1c change >0.5% or HbA1c <7%, enavogliflozin 0.3 mg, dapagliflozin 10 mg): 86.55%
- Subjects achieving therapeutic glycemic response 2, % (per-protocol set, response 2 = HbA1c change >0.7% or HbA1c <7%, enavogliflozin 0.3 mg, dapagliflozin 10 mg): 81.51%
- Subjects achieving therapeutic glycemic response 3, % (per-protocol set, response 3 = HbA1c change >1% or HbA1c <7%, enavogliflozin 0.3 mg, dapagliflozin 10 mg): 78.15%
